Data: paper PMC5522181 (ACS chemical neuroscience, 2017)
Like-named read-outs stand apart in the source and are kept apart here.

Experiments:
Pharmacokinetics = conditions: both, rhesus monkey, sc
in vitro = conditions: plasma, pH 7.4
[1] = Plasma protein binding by equilibrium dialysis
human Pgp (MDCK-MDR1) = human Pgp (MDCK-MDR1) (Homo sapiens, UniProt P08183); assay: Bidirectional transport across MDR1-MDCK cell monolayers; assay type: in vitro ADME; conditions: CNO 5 μM
BCRP (MDCK-BCRP) = target: T1, BCRP (MDCK-BCRP) (Homo sapiens, UniProt Q9UNQ0); assay: Bidirectional transport across BCRP-MDCK cell monolayers; assay type: in vitro ADME; conditions: MDCK-BCRP monolayer; CNO 5 μM; 120 min; no inhibitor
T1 sequence (Q9UNQ0 1-655): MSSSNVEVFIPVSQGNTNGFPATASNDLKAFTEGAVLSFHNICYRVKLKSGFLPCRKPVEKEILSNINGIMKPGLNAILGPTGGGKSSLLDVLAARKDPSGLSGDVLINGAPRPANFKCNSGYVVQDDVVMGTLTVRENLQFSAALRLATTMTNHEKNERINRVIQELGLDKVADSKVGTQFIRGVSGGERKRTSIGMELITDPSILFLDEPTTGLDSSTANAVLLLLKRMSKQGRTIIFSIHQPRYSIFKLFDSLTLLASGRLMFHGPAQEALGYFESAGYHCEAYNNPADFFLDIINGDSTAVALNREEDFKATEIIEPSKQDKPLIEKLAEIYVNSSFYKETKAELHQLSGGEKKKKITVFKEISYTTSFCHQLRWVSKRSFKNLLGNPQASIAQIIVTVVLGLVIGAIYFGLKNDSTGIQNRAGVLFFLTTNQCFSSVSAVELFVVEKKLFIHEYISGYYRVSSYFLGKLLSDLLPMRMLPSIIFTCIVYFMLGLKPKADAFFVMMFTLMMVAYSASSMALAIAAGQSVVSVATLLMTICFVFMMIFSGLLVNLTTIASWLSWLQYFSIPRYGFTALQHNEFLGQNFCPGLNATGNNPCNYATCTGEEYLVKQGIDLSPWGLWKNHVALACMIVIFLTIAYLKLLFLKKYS

[2] = rhesus monkey, in vivo, sc
[3] = CNO 10 mg/kg IM, monkeys; cited from earlier work
[4] = MDCK-Pgp monolayer, 120 min, no inhibitor

Chain of human Pgp (MDCK-MDR1) (P08183 whole entry): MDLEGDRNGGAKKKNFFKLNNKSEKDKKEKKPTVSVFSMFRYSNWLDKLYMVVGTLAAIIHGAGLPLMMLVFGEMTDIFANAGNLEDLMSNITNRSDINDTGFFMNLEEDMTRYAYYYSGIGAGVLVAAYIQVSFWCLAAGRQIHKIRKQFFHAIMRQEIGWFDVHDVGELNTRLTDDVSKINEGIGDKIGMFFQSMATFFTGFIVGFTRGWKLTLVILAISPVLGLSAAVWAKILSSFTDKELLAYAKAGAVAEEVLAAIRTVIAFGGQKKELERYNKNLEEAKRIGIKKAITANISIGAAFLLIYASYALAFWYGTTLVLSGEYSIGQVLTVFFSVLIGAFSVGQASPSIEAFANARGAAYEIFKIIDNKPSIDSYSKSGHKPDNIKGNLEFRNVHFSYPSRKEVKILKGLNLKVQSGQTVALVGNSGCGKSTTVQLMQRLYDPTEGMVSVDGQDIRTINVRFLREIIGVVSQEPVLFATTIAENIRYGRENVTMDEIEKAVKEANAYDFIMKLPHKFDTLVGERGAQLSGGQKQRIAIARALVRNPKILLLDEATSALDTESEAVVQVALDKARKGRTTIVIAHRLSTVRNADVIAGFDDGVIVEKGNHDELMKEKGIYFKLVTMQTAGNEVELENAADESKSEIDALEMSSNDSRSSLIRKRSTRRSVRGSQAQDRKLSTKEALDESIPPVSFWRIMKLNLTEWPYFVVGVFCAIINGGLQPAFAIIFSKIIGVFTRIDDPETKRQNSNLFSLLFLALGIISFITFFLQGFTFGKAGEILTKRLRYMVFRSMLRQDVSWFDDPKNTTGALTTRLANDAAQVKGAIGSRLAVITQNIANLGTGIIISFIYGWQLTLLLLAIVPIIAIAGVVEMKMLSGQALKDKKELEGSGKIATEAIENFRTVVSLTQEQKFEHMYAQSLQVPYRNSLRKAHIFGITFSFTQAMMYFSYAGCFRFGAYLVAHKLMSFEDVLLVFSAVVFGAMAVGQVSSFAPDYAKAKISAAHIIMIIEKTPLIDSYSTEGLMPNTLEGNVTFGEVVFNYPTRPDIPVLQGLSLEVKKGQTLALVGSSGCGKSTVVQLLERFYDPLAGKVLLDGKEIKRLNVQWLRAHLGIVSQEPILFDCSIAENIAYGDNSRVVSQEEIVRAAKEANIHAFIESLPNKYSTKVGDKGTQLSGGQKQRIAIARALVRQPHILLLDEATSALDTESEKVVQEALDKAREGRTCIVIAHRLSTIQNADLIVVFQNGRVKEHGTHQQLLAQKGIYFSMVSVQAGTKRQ

| Tmax (Pharmacokinetics; CSF, 3 mg/kg) [h] | Tmax (Pharmacokinetics; CSF, 10 mg/kg) [h] | Tmax (Pharmacokinetics; plasma, 3 mg/kg) [h] | fraction unbound at 4 h, 1 μM (in vitro) | fraction unbound at 4 h, 1 μM ([1]; pH 7.4) | Compound | A-B permeability (Papp) (human Pgp (MDCK-MDR1); [4]) [×10⁻⁶ cm/s] | B-A permeability (Papp) (human Pgp (MDCK-MDR1); [4]) [×10⁻⁶ cm/s] | Pgp substrate assessment (human Pgp (MDCK-MDR1); MDCK-Pgp) | A-B permeability (Papp) (BCRP (MDCK-BCRP)) [×10⁻⁶ cm/s] | B-A permeability (Papp) (BCRP (MDCK-BCRP)) [×10⁻⁶ cm/s] | fu (fraction unbound), PPB ([1]; 1 μM, 4 h at 37 °C, equilibrium dialysis) | AUC at 3 mg/kg as share of AUC at 10 mg/kg [2] | AUC ([2]; 3 mg/kg) [ng·h/mL] | AUC ([2]; 10 mg/kg) [ng·h/mL] | Cmax ([2]; 10 mg/kg) [µM] | Tmax ([2]; 10 mg/kg) [min ^b] | Tmax in CSF [3] [h] | average concentration in CSF [3] [ng/mL] |
| --- | --- | --- | --- | --- | --- | --- | --- | --- | --- | --- | --- | --- | --- | --- | --- | --- | --- | --- |
| 24 | 24 | 24 | 0.11 | – | Clc1ccc2c(c1)N=C(N1CCNCC1)c1ccccc1N2 [N-desmethylclozapine] | – | – | – | – | – | – | – | – | – | – | – | – | – |
| 2.67 | 2.67 | 2.67 | – | 0.05 | CN1CCN(C2=Nc3cc(Cl)ccc3Nc3ccccc32)CC1 [clozapine] | – | – | – | – | – | – | – | – | – | – | – | – | – |
| – | – | – | – | – | clozapine-N-oxide [CNO] | 0.05 | 1 | substrate of Pgp | 0.07 | 0.21 | 0.43 | approximately 65% | 519 | 795 | 7 | 90 | 1 | 9 |
